In the CATMoS acute toxicity set (Mansouri et al. 2021):

Experiment: rat acute oral toxicity
Details: in vivo
In the case of CCOP(=S)(OCC)OC(Cl)C(Cl)(Cl)Cl (configuration not stated), the LD50 is reported as 1.8 mg/kg. With ClC(Cl)C(Cl)Cl the LD50 was 200 mg/kg. O=C1OC(=O)c2ccccc21 gave an LD50 of 1530 mg/kg. ClC(Cl)=C(Cl)Cl showed an LD50 of 2630 mg/kg. With O=C1C[C@@H]2OCC=C3CN4CC[C@]56c7ccccc7N1[C@H]5[C@H]2[C@H]3C[C@H]46 the LD50 was 3.58 mg/kg. ClC1=C(Cl)C2(Cl)C3C(Cl)OC(Cl)C3C1(Cl)C2(Cl)Cl (configuration not stated) gave an LD50 of 4.8 mg/kg. For CCCCCCCCCC[N+](C)(C)CCCCCCCCCC, the LD50 was 84 mg/kg. In the case of c1ccc2ccccc2c1, the LD50 is reported as 2200 mg/kg. O=S(=O)(O)CCCS showed an LD50 of 3720 mg/kg. Work on CN(C)CC/C=C1\c2ccccc2Sc2ccc(Cl)cc21 yielded an LD50 of 200 mg/kg. Work on CN(C)C(=O)C(c1ccccc1)c1ccccc1 yielded an LD50 of 685 mg/kg. Compound C=CCBr has an LD50 of 120 mg/kg. Work on COC(=O)C(N)Cc1cnc[nH]1 (configuration not stated) yielded an LD50 of 1370 mg/kg. CCCC(C)=O showed an LD50 of 1600 mg/kg. Work on CCOc1ccc(NC(C)=O)cc1 yielded an LD50 of 1650 mg/kg. Work on CCCCCCCC[Si](OCC)(OCC)OCC yielded an LD50 of 11500 mg/kg. Work on O=C(O)c1cc2ccccc2cc1O yielded an LD50 of 809 mg/kg. Work on Cc1ccccc1OCC1CO1 (configuration not stated) yielded an LD50 of 2800 mg/kg. For CC1(C)C(C=C(Cl)Cl)C1C(=O)OC(C#N)c1ccc(F)c(Oc2ccccc2)c1 (configuration not stated), the LD50 was 270 mg/kg. CCCCCCCCCCCCN(CCCN)CCCN gave an LD50 of 252 mg/kg. Work on N#CCCC(Br)(C#N)CBr (configuration not stated) yielded an LD50 of 515 mg/kg. In the case of CC1(C)CC(=O)CC(C)(C#N)C1 (configuration not stated), the LD50 is reported as 61.6 mg/kg. Compound CN1CCCC1=O has an LD50 of 3910 mg/kg. CC(C)C#N showed an LD50 of 50 mg/kg. In the case of N#CC(Br)(Br)C(N)=O, the LD50 is reported as 178 mg/kg. With CC(O)COCC(C)O (configuration not stated) the LD50 was 14800 mg/kg. In the case of CCOP(=S)(NC(C)C)Oc1ccccc1C(=O)OC(C)C (configuration not stated), the LD50 is reported as 21.1 mg/kg. ClC(Cl)c1ccccc1 showed an LD50 of 3250 mg/kg. For C#CCO, the LD50 was 20 mg/kg. For Cc1cccc(N)c1, the LD50 was 450 mg/kg. Cc1cccnc1 gave an LD50 of 400 mg/kg. With CCCCCCCCCCCCCCCCCCN the LD50 was 1000 mg/kg. Work on COc1ccccc1[N+](=O)[O-] yielded an LD50 of 740 mg/kg. Compound CC1CCC(CO)CC1 (configuration not stated) has an LD50 of 707 mg/kg. In the case of CCN(CC)CCCN, the LD50 is reported as 410 mg/kg. CC(C)CO gave an LD50 of 2460 mg/kg. For C[C@@H](O)C(=O)O, the LD50 was 3540 mg/kg. CCC(C)=O showed an LD50 of 2740 mg/kg. In the case of CC(=O)C(C)=O, the LD50 is reported as 1580 mg/kg. C[Si](C)(C)N[Si](C)(C)C showed an LD50 of 847 mg/kg. For C/C=C\CC1=C(C)[C@@H](OC(=O)[C@@H]2[C@@H](C=C(C)C)C2(C)C)CC1=O, the LD50 was 1030 mg/kg. Compound CCCCN has an LD50 of 366 mg/kg. Ic1ccccc1 showed an LD50 of 1750 mg/kg. Work on ClSC(Cl)(Cl)Cl yielded an LD50 of 82.6 mg/kg. NC(=O)/C(=C\c1ccc([N+](=O)[O-])o1)c1ccco1 showed an LD50 of 340 mg/kg. CNc1ccccc1 gave an LD50 of 716 mg/kg. Work on O=[N+]([O-])OCC(CO[N+](=O)[O-])O[N+](=O)[O-] yielded an LD50 of 105 mg/kg. For CCCCN(C)C, the LD50 was 184 mg/kg. COP(=S)(OC)Oc1ccc([N+](=O)[O-])cc1 showed an LD50 of 6.01 mg/kg. With COP(=S)(OC)Oc1ccc(Sc2ccc(OP(=S)(OC)OC)cc2)cc1 the LD50 was 444 mg/kg. Compound CC1(C)CC(N)CC(C)(C)N1 has an LD50 of 906 mg/kg. With COCCOCCOCCOC the LD50 was 5390 mg/kg. In the case of NC1CCCCC1N (configuration not stated), the LD50 is reported as 1170 mg/kg. With CCNP(=S)(OC)O/C(C)=C/C(=O)OC(C)C (configuration not stated) the LD50 was 59.5 mg/kg. In the case of CCCN(CCC)C(=O)SCC, the LD50 is reported as 916 mg/kg. With COCC(C)O (configuration not stated) the LD50 was 3740 mg/kg. O=P(OCC(Br)CBr)(OCC(Br)CBr)OCC(Br)CBr (configuration not stated) gave an LD50 of 810 mg/kg. Work on C=C(C)C(=O)OCc1ccccc1 yielded an LD50 of 3980 mg/kg. C=CC(=O)NC(C)(C)CS(=O)(=O)O showed an LD50 of 1830 mg/kg. With CS the LD50 was 116 mg/kg. Compound O=C1CCCN1 has an LD50 of 328 mg/kg. For O=CC=Cc1ccccc1, the LD50 was 2200 mg/kg. CC1=CCC(O)(C(C)C)CC1 (configuration not stated) gave an LD50 of 1300 mg/kg. In the case of CCCCCCCCCCCCCCCCCC[N+](C)(C)C, the LD50 is reported as 702 mg/kg. With CC(C)c1cccc(C(C)C)c1N=C=Nc1c(C(C)C)cccc1C(C)C the LD50 was 200 mg/kg. Compound CCCSP(=S)(OCC)Oc1ccc(SC)cc1 (configuration not stated) has an LD50 of 65 mg/kg. In the case of O=P(Oc1ccccc1)(Oc1ccccc1)Oc1ccccc1, the LD50 is reported as 3500 mg/kg. With COCCOCCO the LD50 was 5500 mg/kg. Work on CCN(CC)c1nc(Nc2ccc(/C=C/c3ccc(Nc4nc(Nc5cc(S(=O)(=O)O)ccc5S(=O)(=O)O)nc(N(CC)CC)n4)cc3S(=O)(=O)O)c(S(=O)(=O)O)c2)nc(Nc2cc(S(=O)(=O)O)ccc2S(=O)(=O)O)n1 yielded an LD50 of 11300 mg/kg. In the case of S=C=S, the LD50 is reported as 1200 mg/kg. With O=[N+]([O-])C(Br)(CO)CO the LD50 was 180 mg/kg. Compound CC1(C)[C@H](C(=O)O[C@@H](C#N)c2cccc(Oc3ccccc3)c2)[C@@H]1C=C(Cl)Cl (single isomer, unassigned) has an LD50 of 57 mg/kg. Work on CC(C)(C)CCCCCCCCCN yielded an LD50 of 300 mg/kg. In the case of Nc1ccccc1C(F)(F)F, the LD50 is reported as 1870 mg/kg. CCCCC(Cc1cc(C(C)(C)C)c(O)c(C(C)(C)C)c1)(C(=O)OC1CC(C)(C)N(C)C(C)(C)C1)C(=O)OC1CC(C)(C)N(C)C(C)(C)C1 gave an LD50 of 1490 mg/kg. Compound COC(=O)CC(C)=O has an LD50 of 2580 mg/kg. Work on N#Cc1c(Cl)c(Cl)c(Cl)c(C#N)c1Cl yielded an LD50 of 242 mg/kg. Work on CCCCN(CCCC)SN(C)C(=O)Oc1cccc2c1OC(C)(C)C2 yielded an LD50 of 51 mg/kg. COC(=O)N(C(=O)N1CO[C@@]2(C(=O)OC)Cc3cc(Cl)ccc3C2=N1)c1ccc(OC(F)(F)F)cc1 gave an LD50 of 268 mg/kg. O=C(OCCOCCOC(=O)c1ccccc1)c1ccccc1 gave an LD50 of 2830 mg/kg. Work on CC(C)N(C(=O)CO)c1ccc(F)cc1 yielded an LD50 of 474 mg/kg. In the case of CC(C)COC(=O)CC(C(=O)OCC(C)C)S(=O)(=O)O (configuration not stated), the LD50 is reported as 2770 mg/kg.
